Assay results as given in the supplement of paper PMC11424490.

What was measured:
NCI-H2122 [1] = assay: combination cScore with sotorasib (Bliss gap around IC50) (%PoC); higher = stronger additive effect
How it was run: (§1)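 NCI-H2122, NCI-H358 and SW837 cells (500 or 800 per well, 384-well plates) were dosed in concentration matrices after 24 h and grown 72 h, or 144 h for SW837. CellTiter-Glo luminescence was normalised to vehicle wells as percent of control and fitted with four-parameter curves. The score averages the Bliss-independence gap (expected minus measured viability) over a field around both monotherapy IC50s, or at the top concentrations when no IC50 was reached.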

NCI-H358 [2] = assay: as above
How it was run: as §1

SW837 [3] = assay: as above
How it was run: as §1

NCI-H2122 [4] = assay: fitted bottom plateau of viability curve, % of DMSO control; higher = less maximal inhibition; extreme values may be limits of the assay
How it was run: (§2)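 NCI-H2122 (800 cells/well), SW837 and NCI-H358 (500 cells/well) were seeded in 60 µl in 384-well plates. After 24 h, single compounds were dispensed acoustically in dose series and incubated 72 h (NCI-H2122, NCI-H358) or 144 h (SW837). Viability was read by CellTiter-Glo luminescence (15 min shaking, EnVision reader) and normalised to DMSO controls (percent of control). Relative IC50 (averaged over replicates) and the lower plateau come from a four-parameter nonlinear fit.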

NCI-H358 [5] = assay: as above
How it was run: as §2

SW837 [6] = assay: as above
How it was run: as §2

CC(C)N(CCCNC(=O)Nc1ccc(C(C)(C)C)cc1)C[C@H]1O[C@@H](n2ccc3c(N)ncnc32)[C@H](O)[C@@H]1O + C=CC(=O)N1CCN(c2nc(=O)n(-c3c(C)ccnc3C(C)C)c3nc(-c4c(O)cccc4F)c(F)cc23)[C@@H](C)C1 [sotorasib]
combination cScore with sotorasib (NCI-H2122 [1]): 8.67 | combination cScore with sotorasib (NCI-H358 [2]): 2.07 | combination cScore with sotorasib (SW837 [3]): 1.84

CNS(=O)(=O)Nc1nccc(Cc2c(C)c3ccc(Oc4ncccn4)cc3oc2=O)c1F + C=CC(=O)N1CCN(c2nc(=O)n(-c3c(C)ccnc3C(C)C)c3nc(-c4c(O)cccc4F)c(F)cc23)[C@@H](C)C1 [sotorasib]
combination cScore with sotorasib (NCI-H2122 [1]): 8.14 | combination cScore with sotorasib (NCI-H358 [2]): 4.31 | combination cScore with sotorasib (SW837 [3]): 5.63

COc1ncc(-c2ccc3nccc(-c4ccnnc4)c3c2)cc1NS(=O)(=O)c1ccc(F)cc1F + C=CC(=O)N1CCN(c2nc(=O)n(-c3c(C)ccnc3C(C)C)c3nc(-c4c(O)cccc4F)c(F)cc23)[C@@H](C)C1 [sotorasib]
combination cScore with sotorasib (NCI-H2122 [1]): 20.8 | combination cScore with sotorasib (NCI-H358 [2]): 5.96 | combination cScore with sotorasib (SW837 [3]): 8.72

C[C@@H]1CN(CC(=O)Nc2ccc3c(c2)Cc2cccc(-c4cc(=O)cc(N5CCOCC5)o4)c2S3)C[C@H](C)O1 + C=CC(=O)N1CCN(c2nc(=O)n(-c3c(C)ccnc3C(C)C)c3nc(-c4c(O)cccc4F)c(F)cc23)[C@@H](C)C1 [sotorasib]
combination cScore with sotorasib (NCI-H2122 [1]): 17.1 | combination cScore with sotorasib (NCI-H358 [2]): 5.09 | combination cScore with sotorasib (SW837 [3]): 9.38

Cc1c(-c2c(-c3ccc(F)o3)sc3ncnc(O[C@H](Cc4ccccc4OCc4ccnn4CC(F)(F)F)C(=O)O)c23)ccc(OCCN2CCN(C)CC2)c1Cl + C=CC(=O)N1CCN(c2nc(=O)n(-c3c(C)ccnc3C(C)C)c3nc(-c4c(O)cccc4F)c(F)cc23)[C@@H](C)C1 [sotorasib]
combination cScore with sotorasib (NCI-H2122 [1]): 10.4 | combination cScore with sotorasib (NCI-H358 [2]): 4.06 | combination cScore with sotorasib (SW837 [3]): 2.8

Cc1c(Cn2c(C)nc3c(C(=O)O)cc(N4CCOCC4)cc32)cccc1C(F)(F)F + C=CC(=O)N1CCN(c2nc(=O)n(-c3c(C)ccnc3C(C)C)c3nc(-c4c(O)cccc4F)c(F)cc23)[C@@H](C)C1 [sotorasib]
combination cScore with sotorasib (NCI-H2122 [1]): 5.26 | combination cScore with sotorasib (NCI-H358 [2]): -2.39 | combination cScore with sotorasib (SW837 [3]): 9.96

Cc1cc(C)c(CNC(=O)c2cc(-c3ccc(N4CCNCC4)nc3)cc3c2c(C)cn3C2CCCC2)c(=O)[nH]1 + C=CC(=O)N1CCN(c2nc(=O)n(-c3c(C)ccnc3C(C)C)c3nc(-c4c(O)cccc4F)c(F)cc23)[C@@H](C)C1 [sotorasib]
combination cScore with sotorasib (NCI-H2122 [1]): 10.7 | combination cScore with sotorasib (NCI-H358 [2]): 2.26 | combination cScore with sotorasib (SW837 [3]): 1.67

Cc1nc(Nc2n[nH]c3c2CN(C(=O)N[C@H](CN(C)C)c2ccccc2)C3(C)C)c2sccc2n1 + C=CC(=O)N1CCN(c2nc(=O)n(-c3c(C)ccnc3C(C)C)c3nc(-c4c(O)cccc4F)c(F)cc23)[C@@H](C)C1 [sotorasib]
combination cScore with sotorasib (NCI-H2122 [1]): 17.5 | combination cScore with sotorasib (NCI-H358 [2]): -0.36 | combination cScore with sotorasib (SW837 [3]): 4.19

O=C(C1CC1)N1CC[C@@H](Cn2c(-c3ccc(-c4ccc5occc5c4)cc3)nc3cnccc32)C1 + C=CC(=O)N1CCN(c2nc(=O)n(-c3c(C)ccnc3C(C)C)c3nc(-c4c(O)cccc4F)c(F)cc23)[C@@H](C)C1 [sotorasib]
combination cScore with sotorasib (NCI-H2122 [1]): 14.4 | combination cScore with sotorasib (NCI-H358 [2]): 1 | combination cScore with sotorasib (SW837 [3]): 13.8

O=c1cc(-c2cccc3c2Sc2ccccc2S3)oc(N2CCOCC2)c1 + C=CC(=O)N1CCN(c2nc(=O)n(-c3c(C)ccnc3C(C)C)c3nc(-c4c(O)cccc4F)c(F)cc23)[C@@H](C)C1 [sotorasib]
combination cScore with sotorasib (NCI-H2122 [1]): 11.2 | combination cScore with sotorasib (NCI-H358 [2]): 12.9 | combination cScore with sotorasib (SW837 [3]): 10.6

CC1(C)CCC(c2ccc(Cl)cc2)=C(CN2CCN(c3ccc(C(=O)NS(=O)(=O)c4ccc(N[C@H](CCN5CCOCC5)CSc5ccccc5)c(S(=O)(=O)C(F)(F)F)c4)cc3)CC2)C1 [ABT-263] + C=CC(=O)N1CCN(c2nc(=O)n(-c3c(C)ccnc3C(C)C)c3nc(-c4c(O)cccc4F)c(F)cc23)[C@@H](C)C1 [sotorasib]
combination cScore with sotorasib (NCI-H2122 [1]): 15.1 | combination cScore with sotorasib (NCI-H358 [2]): 2.08 | combination cScore with sotorasib (SW837 [3]): 20.7

COc1cc(CCc2cc(NC(=O)c3ccc(N4CC(C)NC(C)C4)cc3)n[nH]2)cc(OC)c1 (stereo not given) [AZD4547] + C=CC(=O)N1CCN(c2nc(=O)n(-c3c(C)ccnc3C(C)C)c3nc(-c4c(O)cccc4F)c(F)cc23)[C@@H](C)C1 [sotorasib]
combination cScore with sotorasib (NCI-H2122 [1]): 11.8 | combination cScore with sotorasib (NCI-H358 [2]): 5.01 | combination cScore with sotorasib (SW837 [3]): 8.33

CCN(CCCOc1ccc2c(Nc3cc(CC(=O)Nc4cccc(F)c4)[nH]n3)ncnc2c1)CCOP(=O)(O)O [AZD-1152] + C=CC(=O)N1CCN(c2nc(=O)n(-c3c(C)ccnc3C(C)C)c3nc(-c4c(O)cccc4F)c(F)cc23)[C@@H](C)C1 [sotorasib]
combination cScore with sotorasib (NCI-H2122 [1]): 11.3 | combination cScore with sotorasib (NCI-H358 [2]): 1.15 | combination cScore with sotorasib (SW837 [3]): 9.37

CCN1CCN(Cc2ccc(Nc3ncc(F)c(-c4cc(F)c5nc(C)n(C(C)C)c5c4)n3)nc2)CC1 [Abemaciclib] + C=CC(=O)N1CCN(c2nc(=O)n(-c3c(C)ccnc3C(C)C)c3nc(-c4c(O)cccc4F)c(F)cc23)[C@@H](C)C1 [sotorasib]
combination cScore with sotorasib (NCI-H2122 [1]): 9.29 | combination cScore with sotorasib (NCI-H358 [2]): 6.78 | combination cScore with sotorasib (SW837 [3]): 19.6

CN(C)C/C=C/C(=O)Nc1cc2c(Nc3ccc(F)c(Cl)c3)ncnc2cc1O[C@H]1CCOC1 [Afatinib] + C=CC(=O)N1CCN(c2nc(=O)n(-c3c(C)ccnc3C(C)C)c3nc(-c4c(O)cccc4F)c(F)cc23)[C@@H](C)C1 [sotorasib]
combination cScore with sotorasib (NCI-H2122 [1]): 22.8 | combination cScore with sotorasib (NCI-H358 [2]): 11.4 | combination cScore with sotorasib (SW837 [3]): 20.1

C[C@H](Nc1ncnc2nc[nH]c12)c1cc2cccc(Cl)c2c(=O)n1-c1ccccc1 [Duvelisib] (top concentration tested 9999.9 nM)
fitted bottom plateau of viability curve (NCI-H2122 [4]): 56.5% | fitted bottom plateau of viability curve (NCI-H358 [5]): 61% | fitted bottom plateau of viability curve (SW837 [6]): 94.1%

CCCc1cc(C)[nH]c(=O)c1CNC(=O)c1cc(-c2ccnc(N3CCN(C)CC3)c2)cc2c1cnn2C(C)C [GSK343] (top concentration tested 4999.9 nM)
fitted bottom plateau of viability curve (NCI-H2122 [4]): 83.2% | fitted bottom plateau of viability curve (NCI-H358 [5]): 92.7% | fitted bottom plateau of viability curve (SW837 [6]): 94.5%

C[C@H](NC(=O)c1c(N)nn2cccnc12)c1cc2cccc(C#Cc3cnn(C)c3)c2c(=O)n1-c1ccccc1 [IPI-549] (top concentration tested 1000 nM)
fitted bottom plateau of viability curve (NCI-H2122 [4]): 86.2% | fitted bottom plateau of viability curve (NCI-H358 [5]): 91% | fitted bottom plateau of viability curve (SW837 [6]): 91.6%

CS(=O)(=O)CCNCc1ccc(-c2ccc3ncnc(Nc4ccc(OCc5cccc(F)c5)c(Cl)c4)c3c2)o1 [Lapatinib] (top concentration tested 1000 nM)
fitted bottom plateau of viability curve (NCI-H2122 [4]): 77.5% | fitted bottom plateau of viability curve (NCI-H358 [5]): 58.4% | fitted bottom plateau of viability curve (SW837 [6]): 92.9%

O=C(c1cc(Cc2n[nH]c(=O)c3ccccc23)ccc1F)N1CCN(C(=O)C2CC2)CC1 [Olaparib] (top concentration tested 50000 nM)
fitted bottom plateau of viability curve (NCI-H2122 [4]): 63.9% | fitted bottom plateau of viability curve (NCI-H358 [5]): 56.6% | fitted bottom plateau of viability curve (SW837 [6]): 88.2%

O=C(/C=C/N1C[C@H]2C[C@@H]1CN2c1ccccn1)c1ccccc1O [PFI-3] (top concentration tested 50000 nM)
fitted bottom plateau of viability curve (NCI-H2122 [4]): 94% | fitted bottom plateau of viability curve (NCI-H358 [5]): 93.4% | fitted bottom plateau of viability curve (SW837 [6]): 98.3%

O=C(c1c(F)ccc(NS(=O)(=O)N2CC[C@@H](F)C2)c1F)c1c[nH]c2ncc(-c3cnc(C4CC4)nc3)cc12 [PLX8394] (top concentration tested 5000 nM)
fitted bottom plateau of viability curve (NCI-H2122 [4]): 78.7% | fitted bottom plateau of viability curve (NCI-H358 [5]): 57.8% | fitted bottom plateau of viability curve (SW837 [6]): 96.3%

CC1(N)CCN(c2cnc(-c3cccc(Cl)c3Cl)c(N)n2)CC1 [SHP099] (top concentration tested 1000.1 nM)
fitted bottom plateau of viability curve (NCI-H2122 [4]): 84.1% | fitted bottom plateau of viability curve (NCI-H358 [5]): 88.2% | fitted bottom plateau of viability curve (SW837 [6]): 97%

CC/C(=C(\c1ccccc1)c1ccc(OCCN(C)C)cc1)c1ccccc1 [Tamoxifen] (top concentration tested 10000 nM)
fitted bottom plateau of viability curve (NCI-H2122 [4]): 66% | fitted bottom plateau of viability curve (NCI-H358 [5]): 67.9% | fitted bottom plateau of viability curve (SW837 [6]): 88.6%

Oc1nc(-c2ccc(C(F)(F)F)cc2)nc2c1CSCC2 [XAV939] (top concentration tested 50000 nM)
fitted bottom plateau of viability curve (NCI-H2122 [4]): 81.5% | fitted bottom plateau of viability curve (NCI-H358 [5]): 88.7% | fitted bottom plateau of viability curve (SW837 [6]): 89.3%
